SMILES strings stand for the structures.

Data on three compounds can be found in patent US20250066351A1, “PYRAZOLO[1,5-A]PYRIDIN-2,3-YL AMIDES AS KV7 CHANNEL ACTIVATORS” (Biohaven Therapeutics Ltd., priority 2022, published 2025).

The target of test [1] is T1, hKv7.2/7.3 (Homo sapiens, UniProt O43525+O43526).
T1 construct: host or cells: HEK cells, tetracycline-inducible expression
As to the kind of experiment: Kv7.2/7.3 Activation Assay, QPatch planar patch-clamp single concentration screen. In kind it is cell-based. The following applies: increase in current over baseline, Kv7.2/Kv7.3 co-expressing HEK cells, compound concentration 3 μM, steady-state current at end of 2 s pulse to −30 mV. The procedure, abridged:
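Tetracycline-induced HEK cells expressing hKv7.2/7.3, recorded 24 h post-induction by automated whole-cell patch clamp (−80 mV hold, 2 s step to −30 mV). Compound tested at 3 μM (0.1% DMSO); fold increase in steady-state current at end of the −30 mV step over baseline.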
Background: The patch-clamp technique gives a direct electrical read-out from membranes.

The target in test [2] is T1, hKv7.2/7.3. Description: Kv7.2/7.3 Thallium Flux Assay. In kind it is cell-based. The note with it: EC50 of Kv7.2/Kv7.3 activation, responses normalized to retigabine 30 μM. The text has this: The Thallium Flux Assay is used as a surrogate indicator of potassium channel activity.
The experimental protocol was adapted from the FluxOR™ II Green Potassium Ion Channel Assay User Guide (Pub. No. MAN0016084, Invitrogen). Conditions were optimized for the Kv7.2/7.3 cell line.
Cell Line: The hKv7.2/7.3 cell line was obtained from Chantest (Cleveland, OH 44128) cat. #CT6147.
Cell Culture: Kv7.2/7.3 cells were maintained in a media containing DMEM/F12; 50/50 (GIBCO cat. #11330), 10% Fetal Bovine Serum (FBS) (GIBCO cat. #26140), 100 units/mL Penicillin-Streptomycin (GIBCO cat. #15140), 0.005 mg/ml Blasticidin (SIGMA 15205), 0.5 mg/mL Geneticin (GIBCO cat. #10131), and 0.1 mg/mL Zeocin (GIBCO cat. #R25001). One day prior to experimentation, cells were plated in 96 well clear bottom plates (Corning cat. #353219) in a media without Blasticidin, Geneticin, or Zeocin. Channel expression was induced by adding tetracycline (Bioline cat. #BIO87030) at a final concentration of 10 ng/mL.
Compound Plates: The test compound is diluted in a mixture of 0.1% DMSO/extracellular solution with an eight-point concentration range from 0.014 μM to 30 μM. Serial dilutions were made on a Biomek NXP (BECKMAN COULTER).
Measurement and data analysis: A plate reader (Enspire, Perkin Elmer) is used to characterize the ion-channel modulating properties of novel compounds using an excitation wavelength of 475 nm and an emission wavelength of 530 nm. After a 15 sec baseline measurement, the stimulus buffer containing thallium and potassium is injected. A final endpoint measure is taken after 90 sec. Responses are normalized to positive control (retigabine, 30 μM max). Mean normalized responses at each concentration tested are fit to the standard Hill equation to generate an EC50 and maximal response.

Consider `CC(C)(O)CC(=O)Nc1nn2ccc(C(F)(F)F)cc2c1-c1ccc(F)cc1` [Example 14, N-(3-(4-fluorophenyl)-5-(trifluoromethyl)pyrazolo [1,5-a]pyridin-2-yl)-3-hydroxy-3-methylbutanamide], for which the “QPatch Kv7.2/7.3 Activity” value on hKv7.2/7.3 [1] is “+ (2.0-3.99 (+))”. The EC50 (as a rule, the midpoint of the concentration-response curve) on hKv7.2/7.3 [2] was < 1000 nM.
For `CC(C)(C)CC(=O)Nc1nn2ccc(C(C)(C)O)cc2c1C1CCC1` [Example 57, N-(3-cyclobutyl-5-(2-hydroxypropan-2-yl)pyrazolo[1,5-a]pyridin-2-yl)-3,3-dimethylbutanamide], the “QPatch Kv7.2/7.3 Activity” value on hKv7.2/7.3 [1] is “++ (4.0-5.99 (++))”. In addition, the EC50 on hKv7.2/7.3 [2] is < 1000 nM.
In the same order, the values of `CC(C)(O)c1ccn2nc(NC(=O)C[C@H]3CC(F)(F)C3(F)F)c(C3CCC3)c2c1` [Example 95, (S)-N-(3-cyclobutyl-5-(2-hydroxypropan-2-yl)pyrazolo [1,5-a]pyridin-2-yl)-2-(2,2,3,3-tetrafluorocyclobutyl) acetamide] are “+ (2.0-3.99 (+))” and < 1000 nM.
